In BindingDB's records for doi:10.7270/Q2Q52N1X (Vanderbilt Screening Center for GPCRs, Ion Channels and …, 2009):

target: T1, Solute carrier family 12 member 5 (Homo sapiens, UniProt Q9H2X9); assay: KCC2 modulator potency by thallium flux, dose response, cell-based, HEK293 KCC2, FluoZin-2 fluorescence (AID 1736); conditions: not given
T1 sequence (Q9H2X9 whole entry): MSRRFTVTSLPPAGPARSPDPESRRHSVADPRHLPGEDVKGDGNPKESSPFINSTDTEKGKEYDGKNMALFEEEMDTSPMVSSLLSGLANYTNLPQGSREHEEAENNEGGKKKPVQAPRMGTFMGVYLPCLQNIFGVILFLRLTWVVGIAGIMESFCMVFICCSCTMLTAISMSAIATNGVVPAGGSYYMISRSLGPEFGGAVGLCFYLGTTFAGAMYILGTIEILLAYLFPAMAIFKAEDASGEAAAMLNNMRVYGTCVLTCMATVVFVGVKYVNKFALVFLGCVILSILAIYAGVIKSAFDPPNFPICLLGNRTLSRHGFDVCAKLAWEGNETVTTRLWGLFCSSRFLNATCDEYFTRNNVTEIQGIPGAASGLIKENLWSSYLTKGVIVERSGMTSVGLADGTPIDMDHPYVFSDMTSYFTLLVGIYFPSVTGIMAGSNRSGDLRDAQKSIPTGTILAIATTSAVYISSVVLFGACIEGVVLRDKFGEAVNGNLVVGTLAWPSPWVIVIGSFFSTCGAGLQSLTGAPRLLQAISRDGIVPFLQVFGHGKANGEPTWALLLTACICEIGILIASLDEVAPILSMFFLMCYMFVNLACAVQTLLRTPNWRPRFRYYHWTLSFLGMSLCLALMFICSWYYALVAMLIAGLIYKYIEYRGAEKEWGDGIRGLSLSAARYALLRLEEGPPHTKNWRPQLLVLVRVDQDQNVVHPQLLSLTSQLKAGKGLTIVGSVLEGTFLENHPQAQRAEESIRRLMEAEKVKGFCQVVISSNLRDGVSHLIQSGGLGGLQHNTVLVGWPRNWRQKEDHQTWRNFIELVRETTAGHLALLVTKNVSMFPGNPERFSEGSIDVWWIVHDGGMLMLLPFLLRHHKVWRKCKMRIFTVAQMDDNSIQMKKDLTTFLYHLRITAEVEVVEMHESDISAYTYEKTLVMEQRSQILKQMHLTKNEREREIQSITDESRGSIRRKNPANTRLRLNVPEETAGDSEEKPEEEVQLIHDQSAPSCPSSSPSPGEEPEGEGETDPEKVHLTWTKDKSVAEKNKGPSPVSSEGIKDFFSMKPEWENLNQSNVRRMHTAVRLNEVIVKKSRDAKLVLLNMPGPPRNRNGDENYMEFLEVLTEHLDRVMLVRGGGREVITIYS

Row | SMILES | EC50
1 | CN1C(=O)/C(=C/c2ccccc2OCc2ccccc2)NC1=S [(5Z)-3-methyl-5-[(2-phenylmethoxyphenyl)methylidene]-2-sulfanylidene-4-imidazolidinone] | 7.64 µM
2 | Oc1ccccc1CN=Nc1nc2ccccc2o1 [(6E)-6-[(1,3-benzoxazol-2-ylhydrazo)methylidene]-1-cyclohexa-2,4-dienone] | 3040 µM
3 | CCCCCN1C/C=C\C(c2ccc(OC)cc2)N(Cc2ccc(F)cc2)C(=O)C1 (configuration not stated) [(6Z)-1-amyl-4-(4-fluorobenzyl)-5-(4-methoxyphenyl)-5,8-dihydro-2H-1,4-diazocin-3-one] | 7.86 µM
4 | O=C(O)CC/C(=C\c1ccc(N2CCCC2)c([N+](=O)[O-])c1)c1nc2ccccc2s1 [(E)-4-(1,3-benzothiazol-2-yl)-5-(3-nitro-4-pyrrolidin-1-yl-phenyl)pent-4-enoic acid] | 29.4 µM
5 | O=C(O)CC/C(=C\c1ccc(N2CCOCC2)c([N+](=O)[O-])c1)c1nc2ccccc2s1 [(E)-4-(1,3-benzothiazol-2-yl)-5-(4-morpholin-4-yl-3-nitro-phenyl)pent-4-enoic acid] | 82100 µM
6 | COc1ccccc1N1CCN(C(=S)NC(=O)/C=C/c2ccccc2)CC1 [(E)-N-[4-(2-Methoxy-phenyl)-piperazine-1-carbothioyl]-3-phenyl-acrylamide] | 109 µM
7 | COc1ccccc1-n1cnc2cc(NS(=O)(=O)c3ccccc3)ccc21 [MLS000032522] | 101 µM
8 | O=C(CSc1ncccc1-c1nc2ccccc2[nH]1)N1CCN(c2ccccc2F)CC1 [MLS000033700] | 9.45 µM
9 | N#Cc1ccccc1NC(=O)CSc1nccn1CCc1ccccc1 [MLS000051858] | 12.5 µM
10 | O=C(NCc1cccs1)c1nc2c(nnn2Cc2ccc(F)cc2)c(=O)[nH]1 [MLS000074753] | 9.9 µM
11 | O=S(=O)(NCCc1ccccc1F)c1cccc(S(=O)(=O)N2CCOCC2)c1 [MLS000076090] | 4040 µM
12 | CCC(Sc1nc(C)cc(=O)[nH]1)C(=O)Nc1sc2c(c1C#N)CCCC2 (configuration not stated) [MLS000112919] | 25.6 µM
13 | O=C(Cc1csc(-c2ccccc2)n1)NCc1ccc(F)cc1 [MLS000336311] | 19.4 µM
14 | CC1Cc2ccccc2N1C(=O)CN(C)S(=O)(=O)c1cccc2cccnc12 (configuration not stated) [MLS000523063] | 19.5 µM
15 | CS(=O)(=O)N(CC(=O)N1CCN(c2ccc(F)cc2)CC1)c1ccc(F)c(Cl)c1 [MLS000531433] | 7.63 µM
16 | O=[N+]([O-])c1ccccc1C=C[CH+][N-]n1c(-c2ccc(Cl)cc2)n[nH]c1=S [MLS000555506] | 14.1 µM
17 | Cc1nn2c(nc(O)c3ccccc32)c1C=O [MLS000565386] | 40.9 µM
18 | O=C(O)/C=C/c1cn(Cc2ccccc2)nc1-c1ccccc1 [MLS000567315] | 13700 µM
19 | CCCC1=NN2C(=N)/C(=C\c3cc(C)n(-c4cc(C)cc(C)c4)c3C)C(=O)N=C2S1 [MLS000588586] | 7.66 µM

Further lines, results first:

Row | EC50 | SMILES
20 | 0.0323 µM | CCOc1[nH]n(-c2ccccc2)c(=O)c1C=Nc1ccc(F)cc1F [(4E)-4-[[[2,4-bis(fluoranyl)phenyl]amino]methylidene]-5-ethoxy-2-phenyl-pyrazol-3-one]
21 | 6.54 µM | CCOC(=O)c1c(C)[nH]c(N=Nc2ccccc2)c1C [(5Z)-2,4-dimethyl-5-(phenylhydrazinylidene)-3-pyrrolecarboxylic acid ethyl ester]
22 | 2.93 µM | O=C(/C=C/c1ccco1)N1CCC(Cc2ccccc2)CC1 [(E)-1-(4-benzylpiperidin-1-yl)-3-(furan-2-yl)prop-2-en-1-one]
23 | 2.75 µM | CC(C)CCNC(=O)COC(=O)/C=C/c1ccc2ccccc2n1 [(E)-3-(2-quinolinyl)-2-propenoic acid [2-(3-methylbutylamino)-2-oxoethyl] ester]
24 | 0.489 µM | COc1ccc(-c2nnc(S/C(=C/c3ccc(Cl)cc3)C(=O)O)o2)cc1 [(E)-3-(4-chlorophenyl)-2-[[5-(4-methoxyphenyl)-1,3,4-oxadiazol-2-yl]sulfanyl]prop-2-enoic acid]
25 | 2.04 µM | O=C(O)/C=C/c1cn(Cc2ccccc2Cl)nc1-c1ccccc1 [(E)-3-[1-(2-chlorobenzyl)-3-phenyl-pyrazol-4-yl]acrylic acid]
26 | 1.2 µM | O=C(CNC(=O)/C(=C\c1ccc(Br)cc1)NC(=O)c1ccccc1)OCc1ccccc1 [(phenylmethyl) 2-[[(E)-2-benzamido-3-(4-bromophenyl)prop-2-enoyl]amino]ethanoate]
27 | 0.678 µM | O=C(CNC(=O)/C(=C/c1ccccc1)NC(=O)c1ccc(Br)cc1)OCc1ccccc1 [(phenylmethyl) 2-[[(Z)-2-[(4-bromophenyl)carbonylamino]-3-phenyl-prop-2-enoyl]amino]ethanoate]
28 | 0.00108 µM | CCCCNc1cc(C(=O)O)cc(S(N)(=O)=O)c1Oc1ccccc1 [Fordiuran]
29 | 4.09 µM | Cc1ccc2c(c1)nnn2C1CCN(S(=O)(=O)c2cccc(S(=O)(=O)N(C)C)c2)CC1 [MLS000033642]
30 | 0.53 µM | O=C(OC1CCc2ccccc2C1=O)c1ccccc1O (configuration not stated) [MLS000051417]
31 | 1.13 µM | Cc1nonc1NC(=O)CSc1ccc(-c2ccccc2)nn1 [MLS000074514]
32 | 7.34 µM | O=C(NCCc1csc(-c2ccccc2)n1)c1cccs1 [MLS000102716]
33 | 3.24 µM | O=C(Nc1ccc2oc(-c3ccccc3)nc2c1)c1ccncc1 [MLS000109492]
34 | 2.43 µM | CS(=O)(=O)N(CC(=O)N1CCN(c2ccccc2)CC1)c1cccc(Br)c1 [MLS000110474]
35 | 7.12 µM | Cn1c(C(=O)NCCCN2CCN(c3ccccc3F)CC2)cc2c(=O)n(C)c3ccccc3c21 [MLS000118127]
36 | 2.68 µM | Cn1c(C(=O)NCCN2CCN(c3ccccc3F)CC2)cc2c(=O)n(C)c3ccccc3c21 [MLS000118132]
37 | 1.51 µM | Cc1nn(C)c(C)c1C=C1SC(S)=NC1=O [MLS000324943]
38 | 5.08 µM | CCN(CC)S(=O)(=O)c1ccc(NC(=O)CSc2ncnc3ccccc23)cc1 [MLS000393282]
39 | 7.48 µM | CNc1ccc(/C=C(\CCC(=O)O)c2nc3ccccc3s2)cc1[N+](=O)[O-] [MLS000394200]
40 | 3.93 µM | Cc1ccc(C(=O)Nc2nc(=O)n(C(=O)c3ccccc3Cl)s2)cc1 [MLS000540480]
41 | 0.0295 µM | O=C(NNc1nc(-c2ccccc2)cs1)c1ccccc1 [MLS000547345]
42 | 2.68 µM | O=C(CC(Cc1ccccc1)c1ccco1)NC1CCCCC1 (configuration not stated) [MLS000556612]
43 | 2.67 µM | CC(=NNC(=O)c1ccc(Br)cc1)c1ccccc1 [MLS000558629]
44 | 1.99 µM | Cc1nn(-c2ccc(F)cc2)c(C)c1NS(=O)(=O)c1ccc2ccccc2c1 [MLS000565745]
45 | 3.2 µM | CNC(=O)/C(=C\C=C\c1ccccc1)NC(=O)c1ccc([N+](=O)[O-])cc1 [MLS000570424]
46 | 0.304 µM | CCc1ccc(OCCNC(=O)c2ccccc2SCc2ccc(F)cc2)cc1 [MLS000577152]
47 | 2.19 µM | O=C(CSc1ccc(-c2cccs2)nn1)Nc1ccccc1F [MLS000621184]

same assay, conditions: inactive by the depositor's call

Row | SMILES | EC50
48 | Cc1nnc(NC(=O)c2ccc3ccccc3c2)o1 [MLS000056450] | 85.7 µM
49 | O=C(Cn1nnc(-c2ccccc2-n2cnnn2)n1)NCc1ccccc1 [MLS000073516] | 24 µM
50 | CN(CC(=O)N1CC(=O)N(CCc2ccccc2)C(=O)C1)S(=O)(=O)c1cccc2nsnc12 [MLS000095099] | 2270 µM
51 | CC(=O)Nc1ccc(S(=O)(=O)N2CCN(C(C)CCc3ccccc3)CC2)cc1 (configuration not stated) [MLS000110551] | 67 µM
52 | N#C/C(=C\c1ccc(-c2cccc([N+](=O)[O-])c2)o1)C(=O)Nc1nc(-c2cccs2)cs1 [MLS000402444] | 9.15 µM
